# Target: MALT1 (Homo sapiens (Human), UniProt Q9UDY8)
# Experiment: MALT1 enzymatic activity inhibition (fluorescence, Ac-LRSR-AMC substrate)
# Assay type: biochemical
# Settings: recombinant MALT1 1.5 ng/μl, Ac-LRSR-AMC 1 μM
# Protocol: Compound activity was determined using recombinant MALT1 protein (Creative Biomart, Cat #MALT1-28H) and Ac-LRSR-AMC Substrate in an in vitro enzymatic reaction. The enzymatic assay used to determine activity was a Fluorescence assay using a Microplate Reader ClarioStar Plus. The enzymatic reaction was carried out in 1× Assay Buffer (50 mM HEPES pH 7.2-7.4, 100 mM NaCl, 900 mM Sodium citrate, 10 mM DTT). The compounds were dispensed on a 384-well Diamond Well Plate (Axygen, Cat #P-384-120SQ-C—S) using the Biomek FX liquid handling system at 100× solutions of compounds in DMSO. 2.5×MALT1 mix (final concentration 1.5 ng/μl of MALT1) was prepared in 1× Assay Buffer and 8 μl of mixture per well were added into 384w white Reaction Plates with NBS (Corning, Cat #4513). 8 μl of 1× Assay Buffer were used for negative control. Plates were centrifuged for 1 min at 200 g. Next, the compounds were added to Reaction plates using Biomek station via following steps: 1 μl of 100× compounds (in DMSO) was mixed thoroughly with 19 μl of 1× Assay Buffer, then 4 μl of this mixture were added to Reaction plates with 8 μl of MALT1 mix. Plates were centrifuged for 1 min at 200 g and incubated for 10 minutes at rt. Next, 2.5× Ac-LRSR-AMC mix (final concentration 1 μM of Ac-LRSR-AMC) was prepared in 1× Assay Buffer and 8 μl of mixture per well were added to Reaction Plates using Biomek station. Plates were centrifuged for 1 min at 200 g, then the fluorescence was measured immediately using Microplate Reader. Plates were incubated for 30 minutes at 37° C., then for 30 minutes at rt. The fluorescence was measured after the whole incubation using Microplate Reader. The reaction signal was calculated as the subtraction of the first data set values from the second. The % inhibition was then used to calculate the IC50 values. The results of this assay are shown in the Table A. The values of EC50 shown as a letters A-E, where: A≤0.2 μM; 0.2 μM<B≤0.5 μM; 0.5 μM<C≤1 μM; 1<D≤5 μM; E >5.
# Chain of MALT1 (Q9UDY8 whole entry): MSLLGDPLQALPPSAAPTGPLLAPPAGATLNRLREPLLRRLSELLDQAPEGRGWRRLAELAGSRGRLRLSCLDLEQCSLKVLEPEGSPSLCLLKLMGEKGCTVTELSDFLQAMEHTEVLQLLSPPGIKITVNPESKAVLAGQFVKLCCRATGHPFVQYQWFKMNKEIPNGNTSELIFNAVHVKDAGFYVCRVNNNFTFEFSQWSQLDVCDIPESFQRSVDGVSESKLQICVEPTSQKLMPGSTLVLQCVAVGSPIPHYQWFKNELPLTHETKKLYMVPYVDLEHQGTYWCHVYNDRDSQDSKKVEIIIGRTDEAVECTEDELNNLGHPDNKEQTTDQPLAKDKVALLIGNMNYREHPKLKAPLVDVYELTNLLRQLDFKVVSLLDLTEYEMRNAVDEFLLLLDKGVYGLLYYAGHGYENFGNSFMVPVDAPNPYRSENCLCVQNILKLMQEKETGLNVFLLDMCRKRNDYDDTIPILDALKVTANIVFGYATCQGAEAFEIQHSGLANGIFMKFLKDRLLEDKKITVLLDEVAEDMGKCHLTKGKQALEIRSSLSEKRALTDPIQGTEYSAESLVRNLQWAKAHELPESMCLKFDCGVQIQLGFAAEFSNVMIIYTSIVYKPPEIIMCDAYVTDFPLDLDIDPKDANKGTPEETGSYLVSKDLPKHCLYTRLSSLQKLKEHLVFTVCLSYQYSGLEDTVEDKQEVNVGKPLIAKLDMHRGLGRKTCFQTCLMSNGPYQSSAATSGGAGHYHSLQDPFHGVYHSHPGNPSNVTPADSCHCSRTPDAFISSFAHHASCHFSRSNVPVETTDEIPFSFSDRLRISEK
row,EC50 [µM],Structure (SMILES)
1,> 5,"COc1cc(-c2c(NC(=O)Nc3cnc(-c4noc(CNC(=O)CCOCCN5CCN(c6ccc7c(c6)CN(C6CCC(=O)NC6=O)C7=O)CC5)n4)c(C)c3)cnc3ccnn23)cc(OC)c1OC (centres unmarked) [Compound 1, 3-(2-{4-[2-(2,6-Dioxopiperidin-3-yl)-1-oxo-2,3-dihydro-1H-isoindol-5-yl]piperazin-1-yl}ethoxy)-N-[(3-{3-methyl-5-[({[7-(3,4,5-trimethoxyphenyl)pyrazolo[1,5-a]pyrimidin-6-yl]amino}carbonyl)amino]pyridin-2-yl}-1,2,4-oxadiazol-5-yl)methyl]propenamide]"
2,0.2 to 0.5,"Cc1cc(NC(=O)Nc2cnc3ccnn3c2C2CCCC2)cnc1-c1noc(CCCCCC(=O)N2CCN(c3ccc4c(c3)CN(C3CCC(=O)NC3=O)C4=O)CC2)n1 (centres unmarked) [Compound 4, 1-(7-cyclopentylpyrazolo[1,5-a]pyrimidin-6-yl)-3-[6-[5-[6-[4-[2-(2,6-dioxo-3-piperidyl)-1-oxo-isoindolin-5-yl]piperazin-1-yl]-6-oxo-hexyl]-1,2,4-oxadiazol-3-yl]-5-methyl-3-pyridyl]urea]"
3,≤ 0.2,"Cc1cc(NC(=O)Nc2cnc3ccnn3c2C2CCCC2)cnc1-c1nnc(CCCCCC(=O)N2CCN(c3ccc4c(c3)CN(C3CCC(=O)NC3=O)C4=O)CC2)o1 (centres unmarked) [Compound 5, 1-(7-cyclopentylpyrazolo[1,5-a]pyrimidin-6-yl)-3-[6-[5-[6-[4-[2-(2,6-dioxo-3-piperidyl)-1-oxo-isoindolin-5-yl]piperazin-1-yl]-6-oxo-hexyl]-1,3,4-oxadiazol-2-yl]-5-methyl-3-pyridyl]urea]"
4,0.5 to 1,"Cc1cc(NC(=O)Nc2cnc3ccnn3c2C2CCCC2)cnc1-c1cn(CCCCCCC(=O)N2CCN(c3ccc4c(c3)CN(C3CCC(=O)NC3=O)C4=O)CC2)nn1 (centres unmarked) [Compound 6, 1-(7-cyclopentylpyrazolo[1,5-a]pyrimidin-6-yl)-3-[6-[1-[7-[4-[2-(2,6-dioxo-3-piperidyl)-1-oxo-isoindolin-5-yl]piperazin-1-yl]-7-oxo-heptyl]triazol-4-yl]-5-methyl-3-pyridyl]urea]"
5,1 to 5,"Cc1cc(NC(=O)Nc2cnc3ccnn3c2C2CCCC2)cnc1-c1cn(CCCCOCC(=O)N2CCN(c3ccc4c(c3)CN(C3CCC(=O)NC3=O)C4=O)CC2)nn1 (centres unmarked) [Compound 8, 1-(7-cyclopentylpyrazolo[1,5-a]pyrimidin-6-yl)-3-[6-[1-[4-[2-[4-[2-(2,6-dioxo-3-piperidyl)-1-oxo-isoindolin-5-yl]piperazin-1-yl]-2-oxo-ethoxy]butyl]triazol-4-yl]-5-methyl-3-pyridyl]urea]"
6,> 5,"Cc1cc(NC(=O)Nc2cnc3nccn3c2C2CCCC2)cnc1-c1noc(CCCCCC(=O)N2CCN(c3ccc4c(c3)CN(C3CCC(=O)NC3=O)C4=O)CC2)n1 (centres unmarked) [Compound 9, 1-(5-cyclopentylimidazo[1,2-a]pyrimidin-6-yl)-3-[6-[5-[6-[4-[2-(2,6-dioxo-3-piperidyl)-1-oxo-isoindolin-5-yl]piperazin-1-yl]-6-oxo-hexyl]-1,2,4-oxadiazol-3-yl]-5-methyl-3-pyridyl]urea]"
7,1 to 5,"Cc1cc(NC(=O)Nc2cnc3c(Cl)cnn3c2C2CCCC2)cnc1-c1noc(CCCN2CCN(c3ccc4c(c3)CN(C3CCC(=O)NC3=O)C4=O)CC2)n1 (centres unmarked) [Compound 19, 1-(3-chloro-7-cyclopentyl-pyrazolo[1,5-a]pyrimidin-6-yl)-3-[6-[5-[3-[4-[2-(2,6-dioxo-3-piperidyl)-1-oxo-isoindolin-5-yl]piperazin-1-yl]propyl]-1,2,4-oxadiazol-3-yl]-5-methyl-3-pyridyl]urea]"

row,Structure (SMILES),EC50 [µM]
1,"Cc1cc(NC(=O)Nc2cnc3ccnn3c2C2CCCC2)cnc1-c1noc(COCCCCN2CCN(c3ccc4c(c3)CN(C3CCC(=O)NC3=O)C4=O)CC2)n1 (centres unmarked) [Compound 11, 1-(7-cyclopentylpyrazolo[1,5-a]pyrimidin-6-yl)-3-[6-[5-[4-[4-[2-(2,6-dioxo-3-piperidyl)-1-oxo-isoindolin-5-yl]piperazin-1-yl]butoxymethyl]-1,2,4-oxadiazol-3-yl]-5-methyl-3-pyridyl]urea]",0.2 to 0.5

# From patent US20250163066A1, “PROTACs of MALT1” (TEGID THERAPEUTICS, INC., priority 2022, published 2025)
